The text below walks through data of article PMC9029089, “1,5-Disubstituted Acylated 2-Amino-4,5-dihydroimidazoles as a New Class of Retinoic Acid Receptor–Related Orphan Receptor (ROR) Inhibitors” (International Journal of Molecular Sciences, 2022).

Read-outs that look alike come from different tables or passages of the source.

Data set [1] addresses T1, RORγ (Mus musculus, UniProt P51450).
T1 construct: mRORγ (Pro-261-end); expressed in transfected cells
T1 sequence (P51450 261-516 limits assumed): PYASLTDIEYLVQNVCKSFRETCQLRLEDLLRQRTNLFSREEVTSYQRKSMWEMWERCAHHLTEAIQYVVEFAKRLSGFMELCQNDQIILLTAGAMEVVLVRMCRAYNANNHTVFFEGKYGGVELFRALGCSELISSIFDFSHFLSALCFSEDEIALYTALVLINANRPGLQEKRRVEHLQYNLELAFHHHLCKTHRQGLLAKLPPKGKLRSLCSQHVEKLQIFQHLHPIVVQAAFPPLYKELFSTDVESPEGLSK
Description: Gal4-RORγ-LBD UAS-luciferase reporter assay in TRex-CHO-K1 cells (doxycycline-stimulated). It is filed as cell-based. (In general: A reporter such as luciferase makes a cellular process visible.)

Data set [2] deals with TRex-CHO-luciferase-RORγ cells. Put plainly: resazurin cell viability assay. The conditions noted are these: 5 µg/mL. It is filed as cell-based. Here is the method:
(§1) For screening FIU libraries, cells were resuspended in Ham’s F-12 assay medium containing 2% charcoal-treated FBS and no selection drugs. Ten thousand cells per well were seeded in 30 µL of assay medium in 384 white plates with clear bottom (Greiner). Cells were allowed to attach for 2 h, followed by compound treatment and stimulation with 20 ng/mL doxycycline for an additional 16–20 h. Appropriate solvent controls, negative controls with no doxycycline, and blanks with no cells were included in every plate. Prior to measuring luciferase activity, 6 µL of 0.15 mg/mL resazurin (Cayman Chemical) in PBS were added and cells were incubated for 1 h at 37 °C. Fluorescence intensity was detected at 545 nm excitation/590 nm emission using a CLARIOstar reader (BMGLabtech) as a measure of cell viability, to identify any potential cytotoxic effect of test compounds and mixtures. Following the resazurin assay, the medium was removed and 20 µL of BriteLite-Plus luciferase reagent (Perking Elmer) were added; luminescence was measured in a CLARIOstar reader using a 384 aperture spoon and a 0.1 sec measuring time interval.
(In general: Resazurin is reduced to fluorescent resorufin, in cell work by metabolically active cells.)

The target in the next data set is T2, RORα (Homo sapiens, UniProt P35398).
T2 construct: hRORα (Pro-211-end); expressed in transfected cells
T2 sequence (P35398 266-523): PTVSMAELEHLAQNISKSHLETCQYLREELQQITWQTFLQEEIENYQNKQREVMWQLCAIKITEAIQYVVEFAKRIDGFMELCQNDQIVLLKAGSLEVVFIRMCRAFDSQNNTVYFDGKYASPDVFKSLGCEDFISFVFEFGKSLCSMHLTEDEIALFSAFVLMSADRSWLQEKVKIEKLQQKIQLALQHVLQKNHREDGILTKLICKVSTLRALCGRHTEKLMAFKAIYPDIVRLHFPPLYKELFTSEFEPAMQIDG
Description: Gal4-RORα-LBD UAS-luciferase reporter assay in TRex-CHO-K1 cells (doxycycline-stimulated). The data set is classed as cell-based.
Source text: The Gal4-DBD-ROR-LBD fusion proteins were subcloned in the pcDNA4/TO expression vector (Thermo Scientific) and transfected into TRex-CHO-K1 cells (Thermo Scientific) for tetracycline-controlled expression of the corresponding ROR proteins. Transfected cells were selected with hygromycin and Zeocin and individual clones for each of the Gal4-RORγ, Gal4-RORα, and Gal4-RORβ cell lines were isolated using a standard serial dilution protocol. Clones with the highest doxycycline-dependent stimulation of luciferase activity were selected for all functional experiments.
as §1, with “Ten thousand cells per well were seeded in 30 µL of assay medium in 384 white plates with clear bottom (Greiner).” left out, “mixtures.” for “mixtures. Following the resazurin assay, the medium was removed and 20 µL of BriteLite-Plus luciferase reagent (Perking Elmer) were added; luminescence was measured in a CLARIOstar reader using a 384 aperture spoon and a 0.1 sec measuring time interval.”
(§2) Luminescence was normalized by the fluorescence intensity and the percentage of inhibition was calculated with respect to control cells stimulated with doxycycline in the presence of solvent control (0.1% DMF). All primary screens with individual compounds were performed in triplicate with a final concentration of 5 µg/mL. […] IC50 values were calculated using GraphPrism (GraphPad software).

A further data set concerns the target T3, RORβ (Rattus norvegicus, UniProt P45446).
T3 construct: rRORβ (Pro 205-end); expressed in transfected cells
T3 sequence (P45446 205-459 isoform P45446-1): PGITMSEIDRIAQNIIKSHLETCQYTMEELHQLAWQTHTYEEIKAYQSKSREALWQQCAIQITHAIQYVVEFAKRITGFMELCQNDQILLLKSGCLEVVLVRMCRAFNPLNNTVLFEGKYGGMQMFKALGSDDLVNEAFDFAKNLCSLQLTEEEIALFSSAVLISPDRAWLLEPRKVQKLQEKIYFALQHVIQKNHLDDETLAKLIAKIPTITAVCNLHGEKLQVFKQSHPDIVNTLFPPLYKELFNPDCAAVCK
Put plainly: Gal4-RORβ-LBD UAS-luciferase reporter assay in TRex-CHO-K1 cells (doxycycline-stimulated). It is filed as cell-based.
Source text: To investigate the transcriptional activity of all three RORs, we generated stable cell lines expressing an UAS-driven luciferase reporter together with the corresponding Gal4-DNA binding domain fused to the ligand binding domains (LBDs) of mRORγ (Pro-261-end), hRORα (Pro-211-end), or rRORβ (Pro 205-end). The Gal4-DBD-ROR-LBD fusion proteins were subcloned in the pcDNA4/TO expression vector (Thermo Scientific) and transfected into TRex-CHO-K1 cells (Thermo Scientific) for tetracycline-controlled expression of the corresponding ROR proteins. Transfected cells were selected with hygromycin and Zeocin and individual clones for each of the Gal4-RORγ, Gal4-RORα, and Gal4-RORβ cell lines were isolated using a standard serial dilution protocol. Clones with the highest doxycycline-dependent stimulation of luciferase activity were selected for all functional experiments. All cell lines were maintained in complete Ham’s F12 medium containing 10% fetal bovine serum (FBS), 10 µg/mL blasticidine, 100 µg/mL hygromycin, and 100 µg/mL Zeocin and were used within 2 months of culture without any loss of doxycycline-dependent stimulation of luciferase activity.
as §1, §2

In data set [3] the target is T1, RORγ. Description: Gal4-RORγ-LBD UAS-luciferase reporter assay in TRex-CHO-K1 cells (doxycycline-stimulated). It is filed as cell-based. The conditions noted are these: for inhibition at 4 µM: T-REx-CHO-K1, library 2520, RORγ cells, read-out: % Inhibition at 4 μM (N=3); for % Inhibition at 4 μM (N=3): library 2520, RORγ cells.
In another data set the test system is Th17 cells. Details: method as in PMID 21441909, PMID 21499262, PMID 21566134. To be noted: RORγ inverse agonists; cited from earlier work.
Data set [4] relates to experimental autoimmune encephalomyelitis mouse model. Details: method as in PMID 21441909, PMID 21499262, PMID 21566134. The conditions noted are these: EAE mouse model; cited from earlier work.
Setting [5] is: IC50 (μM, N=4) ROR-Gamma, library 2520.
[6] abbreviates: RORγ : IC50, Figure 6, confirmatory experiment, N = 4.
Setting [7] is: IC50 (μM, N=4) ROR-Alpha, library 2520.
[8] abbreviates: RORα : IC50, Figure 6, confirmatory experiment, N = 4.
Where [9] appears, read: IC50 (μM, N=4) ROR-Beta, library 2520.
The mark [10] stands for this setting: Figure 6, confirmatory experiment, N = 4, read-out: RORβ : IC50.
[11] abbreviates: read-out: IC50 (μM, N=4) ROR-Gamma, library 2520.
Setting [12] is: read-out: IC50 (μM, N=4) ROR-Alpha, library 2520.
[13] abbreviates: read-out: IC50 (μM, N=4) ROR-Beta, library 2520.

As to `O=C(Cc1ccccc1)NC1=NC[C@H](Cc2ccccc2)N1CCC12CC3CC(CC(C3)C1)C2` [1295.271], the “% Inhibition RORγ 5 μg/ml” value at RORγ [1] (individual controls 1295.201-307, 5 μg/ml, triplicate) came to 36.0%. The “toxicity as determined by a resazurin assay” value in data set [2] is listed as “significant toxicity”.

The term IC50 denotes the point on the concentration scale where inhibition reaches its midpoint. As a reminder, the inhibition is the relative decrease from the control value, in per cent. On to `CCC(C(=O)NC1=NC[C@H](Cc2ccccc2)N1CCC(C)c1ccccc1)c1ccccc1` (some centres unmarked) [2520.31], for which the IC50 on RORγ [1] (setting [5]) worked out at 3.95 ± 0.3 µM; against RORγ [1] (setting [6]) it was 3.9 ± 0.3 µM; on RORα (setting [7]) it was 6.82 ± 0.4 µM; on RORα (setting [8]), 6.8 ± 0.4 µM; at RORβ (setting [9]), 5.5 ± 0.3 µM. Also, the inhibition at 4 µM at RORγ [3] came to 70.5%.

On to `CCOc1ccc(C[C@H]2CN=C(NC(=O)C(CC)c3ccccc3)N2CC2CCCCC2)cc1` (some centres unmarked) [2520.39], for which the IC50 was 4.36 ± 0.2 µM against RORγ [1] (setting [5]); 4.3 ± 0.2 µM on RORγ [1] (setting [6]); 6.36 ± 0.3 µM at RORα (setting [7]); 6.3 ± 0.3 µM against RORα (setting [8]); 5.3 ± 0.4 µM on RORβ (setting [10]); 5.34 ± 0.4 µM against RORβ (setting [9]). Further, the inhibition at 4 µM at RORγ [3] turned out to be 73.2%.

What is called % Inhibition is the relative decrease from the control value, in per cent. Take `CCOc1ccc(C[C@H]2CN=C(NC(=O)Cc3ccc(OC)cc3)N2CC2CCCCC2)cc1` [2520.42]: the half-inhibitory concentration (IC50) was 5.17 ± 0.8 µM on RORγ [1] (setting [11]), 5.4 ± 0.4 µM at RORα (setting [12]) and 5.21 ± 0.3 µM on RORβ (setting [13]). The “% Inhibition at 4 μM (N=3)” value on RORγ [3] is recorded as 96.5%.

As for `CCOc1ccc(C[C@H]2CN=C(NC(=O)C(CC)c3ccccc3)N2CCC2CC3CCC2C3)cc1` (some centres unmarked) [2520.47], the IC50 against RORγ [1] (setting [5]) was determined as 4.68 ± 0.2 µM; against RORγ [1] (setting [6]), 4.6 ± 0.2 µM; on RORα (setting [7]), 7.2 ± 0.4 µM; on RORβ (setting [10]), 6.6 ± 0.4 µM; on RORβ (setting [9]) it was 6.67 ± 0.4 µM. Moreover, at RORγ [3], the inhibition at 4 µM was determined as 51.3%.

With `CCOc1ccc(C[C@H]2CN=C(NC(=O)C(C)C)N2CC2CCCCC2)cc1` [2520.48], the figures for the IC50 at RORγ [1] (setting [11]), on RORα (setting [12]) and on RORβ (setting [13]) were 9.27 ± 0.4 µM, 9.61 ± 0.5 µM and 6.57 ± 0.5 µM, respectively. In addition, at RORγ [3], the “% Inhibition at 4 μM (N=3)” value amounted to 69.2%.

Turning to `CC(=O)Nc1nc(C)c(S(=O)(=O)Nc2ccc(C(O)(C(F)(F)F)C(F)(F)F)cc2)s1` [SR1001], the “suppression of Th17 differentiation” value with Th17 cells was “suppress Th17 differentiation”. Moreover, the “suppression of the onset of disease” value in data set [4] is “suppress Th17 differentiation and the onset of disease”.

Turning to `C[C@H]1O[C@@H](O[C@H]2[C@@H](O)C[C@H](O[C@H]3[C@@H](O)C[C@H](O[C@H]4CC[C@@]5(C)[C@H](CC[C@@H]6[C@@H]5C[C@@H](O)[C@]5(C)[C@@H](C7=CC(=O)OC7)CC[C@]65O)C4)O[C@@H]3C)O[C@@H]2C)C[C@H](O)[C@@H]1O` [digoxin], the “suppression of Th17 differentiation” value with Th17 cells is reported as “suppress Th17 differentiation”. In addition, the “suppression of the onset of disease” value in data set [4] was “suppress Th17 differentiation and the onset of disease”.

On to `C[C@H]1[C@H](C)CC[C@]2(C(=O)O)CC[C@]3(C)C(=CC[C@@H]4[C@@]5(C)CC[C@H](O)C(C)(C)[C@@H]5CC[C@]43C)[C@H]12` [ursolic acid], for which, in the data set with Th17 cells, the “suppression of Th17 differentiation” value was “suppress Th17 differentiation”. Further, the “suppression of the onset of disease” value in data set [4] was “suppress Th17 differentiation and the onset of disease”.
